In patent US11259522B2, “Control of resistant pests” (priority 2017, dated 2022):
≈ marks a conversion by molar mass, not a printed value. Where “and” joins values, the source holds several entries; their conditions need not be identical. Equal entries are not always repeated. Where two headings read alike, the source gives them in different places.

Legend:
[1] = tested on: Halotydeus destructor resistant population (synthetic pyrethroid resistance); experiment: Coated plastic vial bioassay, redlegged earth mite, resistant population; type: in vivo; conditions: 24 hours exposure; for LC50: Halotydeus destructor, 24 h
Protocol: (§1) The test compositions included 0.1% Tween 20 non-ionic surfactant to aid the spread of insecticides when coating plastic vials. This concentration of Tween 20 has been previously shown to have no toxic effect on H. destructor. For each insecticide concentration tested, 3, 10, 30, 100, 300, 1000, 3000 and 10000 mg a.i./L (ppm), approximately 10 mL of solution was poured into a 15 mL plastic vial and swirled to ensure a complete coating, with excess liquid removed. Eight vials were coated per concentration and were left to dry overnight. Control vials were treated in the same way but with water used in place of test composition.
(§2) Eight susceptible H. destructor mites were then placed into each vial along with a leaf of common vetch (Vicia sativa). The leaf was added to provide food and increase humidity. Vials were then sealed with a lid and placed at 18° C. After 4, 6, 8 and 24 hours of exposure, the mites were scored as alive (moving freely), incapacitated (inhibited movement), or dead (no movement over a 5 second period).
The resistant population of H. destructor was collected from a lucerne paddock in the Upper South-East district of South Australia, where resistance to synthetic pyrethroids was confirmed in late 2016.
(§3) The data produced in the assays were assessed for concentrations that caused 50, 90 and 99% mortality (lethal concentration, LC), together with 95% confidence intervals (CIs) and were estimated from observations of mortality after 24 hours exposure using a binomial logistic regression (Robertson & Preisler, 1992, Pesticide Bioassays with Arthropods. CRC: Boca Raton; Venables & Ripley, 2002, Modern Applied Statistics with S. Springer: New York). Population differences were tested by comparing the change in model deviance with and without the population factor (different regression intercepts for each population). Differences in regression slopes between populations were tested by comparing the change in model deviance with and without the population×dose interaction term. The resistance ratio of the insecticide-resistant population was estimated as the ratio of its LC50 to that of the susceptible population. All analyses were performed using R 3.3. (R Core Team 2017, R: A language and environment for statistical computing. R Foundation for Statistical Computing, Vienna, Austria. http://www.R-project.org).

[2] = tested on: Halotydeus destructor susceptible population; experiment: Coated plastic vial bioassay, redlegged earth mite, susceptible population; type: in vivo; conditions: for LC50: Halotydeus destructor, read-out: LC50 (mg a.i./L)
Protocol: The efficacy of flavesone against H. destructor was assessed using the glass vial technique developed by Hoffmann et al. (1997, Exp. Appl. Acarol., 21:151-162), adapted for plastic vials. A susceptible population of mites was collected from capeweed (Arctotheca calendula) at a Victorian site (37° 40′33″S, 145° 07′ 45″E) that had no known history of insecticide application. Following collection, samples were stored in small plastic containers with leaf material and paper towel to absorb excess moisture. Containers were kept at 4° C. prior to testing.
as §1
as §2, with “period). […]” for “period).”
as §3

[3] = tested on: Rhyzopertha dominica strain QRD1440 (resistant to OP protectants and pyrethroids); experiment: Grain protectant bioassay on treated wheat, resistant lesser grain borer; conditions: Example 5, QRD1440, replicates A, B, C; for F1 Progeny count No. dead/total: further 6 weeks
[4] = tested on: Rhipicephalus microplus larvae, multi-resistant Tiaro reference strain; experiment: Larval packet test (LPT), cattle tick larvae, multi-resistant strain; type: in vivo; conditions: Example 2, 24 hours
Protocol: (§4) Filter papers (75 mm×85 mm Whatman® No. 541), with grid patterns, were impregnated on ½ of the paper with 225 μL of each solution using a micro-pipette and immediately folded in half, enveloped in polyethylene plastic and sealed with 3 bulldog clips. The impregnated papers were kept at room temperature on aluminium trays for a minimum of 60 minutes to allow for dispersal across the grid pattern of the paper prior to aliquoting of larvae. The packets were prepared in duplicate for each concentration, including the negative control.
(§5) Aliquots of approximately 100 larvae were placed into each packet using plastic disposable forceps and the packets resealed and incubated and 27° C. and 85% relative humidity (RH).
(§6) After 24 hours, the larval packets were opened and the numbers of dead and live larvae were counted under a magnification lamp. Percentage mortality was calculated and, where applicable, corrected using Abbott's Formula (Abbott, 1925, J. Economic Entomology, 18:256-257): […]
(§7) LC50 and LC99 values were determined by Probit mortality vs log concentration analysis. Probit values were derived from “Transformation of Percentages to Probit's Tables” published by Fisher R. A. and Yates F. (1938).
(§8) The LPT Assay of Example 1 was repeated using a narrow range of concentrations, 1 in 2 series, of flavesone to determine LC50 and LC99 values against the susceptible NRFS and the multi-resistant Tiaro reference strain.
The Tiaro strain of R. microplus comprises of about 30% fluazuron, 60.6% cypermethrin (SP), 57.6% flumethrin (SP), 16.2% amitraz (amidine), 11.3% DDT, 9.3% chlorpyrifos (OP) and 2.4% dieldrin resistance [2014 acaricide resistance profiling].
The stock solution of flavesone (100,000 ppm) was diluted 1 in 10 with olive oil (1 mL to 9 mL diluent) to give 10,000 ppm, which was then further diluted 1 in 2 in series (5 mL to 5 mL diluent) to give 5,000 ppm, 2,500 ppm, 1,250 ppm, 625 ppm, 312.5 ppm and 156.25 ppm concentrations.
For the preparation of the positive control, cypermethrin, a stock solution of a concentration of 10,000 ppm was prepared in 2:1 trichloroethylene (TCE)/olive oil as the solvent ([…] cypermethrin, 94.8% purity, to 10 mL solvent) and then further diluted 1 in 2 in series (5 mL to 5 mL solvent) to also give 5,000 ppm, 2,500 ppm, 1,250 ppm, 625 ppm, 312.5 ppm and 156.25 ppm.
The flavesone papers were prepared as in Example 1.
The cypermethrin papers were impregnated with 670 μL of each solution using a micro-pipette and hung on a rack in a fume-hood to allow papers to dry (evaporation of TCE) for a minimum of 60 minutes. The papers were then folded in half and sealed with three bulldog clips, placed on aluminium trays prior to aliquoting the larvae. All packets were prepared in duplicate.
A dose-response relationship was determined at 24 hours contact exposure.
Concentrations of 1,250 ppm, 625 ppm and 312.5 ppm flavesone concentrations prepared for Example 3 were used on the same day of preparation. Duplicate papers were prepared for both the NRFS and Tiaro strains (including negative controls) as described in Example 2.
Mortality was assessed at 48 hours and LC50 and LC99 values were determined by Probit mortality vs log concentration analysis.

[5] = tested on: Rhipicephalus microplus larvae, susceptible non-resistant field strain (NRFS); experiment: Larval packet test (LPT), cattle tick larvae, susceptible strain; type: in vivo; conditions: for LC50 (ppm) / LC99 (ppm): NRFS, 24 hours, Probit analysis; for mortality at 1250 ppm: 1,250 ppm
Protocol: The larval packet test (LPT) is a modification of that first described by Stone and Haydock (1962, Bull. Entomol. Res., 563-578, http://dx.doi.org/10.1017/5000748530004832X) for evaluation of field resistance in cattle tick (Rhipicephalus microplus) larvae.
The first LPT assay was conducted to identify the potential range of flavesone acaricidal activity against larvae of a susceptible non-resistant field strain (NRFS) of R. microplus as a reference strain using a wide range of concentrations (1 in 10 in series).
The test compound, flavesone, 6-isobutyryl-2,2,4,4-tetramethylcyclohexane-1,3,5-trione, 96.7%, was used. As its volatility/evaporative properties were unknown, the LPT method was modified to incorporate the use of suitably-sized polyethylene plastic sheets to envelop the larval packets, minimizing exposure of the test active to the atmosphere.
In addition, the use of the solvent trichloroethylene (TCE) was removed to avoid the time required for evaporation in the preparation of test papers. The test solutions were prepared in olive oil only at the diluent and the papers immediately enveloped in the plastic sheets and sealed with bulldog clips to minimize evaporation.
A stock solution with a concentration of 100,000 ppm (10%) flavesone was prepared in olive oil as the diluent (1.035 mL flavesone (96.7%) to 8.965 mL olive oil) and then further diluted 1 in 10 in series to also give 10,000 ppm, 1,000 ppm, 100 ppm, 10 ppm and 1 ppm concentration. The negative control was olive oil only. No positive control was included in this experiment. Due to the viscosity of the olive oil, all solutions were prepared using reverse pipetting technique.
as §4
An 8 dram vial containing approximately 20,000 hatched 7-21 day old NRFS larvae (about 1 g eggs) was opened and set up on a moated tray with a small amount of detergenated water, about 15 to 30 minute before use. Only larvae that migrated to the top of the vial were used in the assay.
as §5, §6, §7, §8
The stock solution of flavesone (100,000 ppm) was diluted 1 in 10 with olive oil (1 mL to 9 mL diluent) to give 10,000 ppm, which was then further diluted 1 in 2 in series (5 mL to 5 mL diluent) to give 5,000 ppm, 2,500 ppm, 1,250 ppm, 625 ppm, 312.5 ppm and 156.25 ppm concentrations. […]

[6] = tested on: Aedes aegypti Liverpool strain (insecticide susceptible, LVP) L3 larvae; experiment: Mosquito larval dose response assay, LVP strain; conditions: read-out: Lethal Concentration (LC50) LVP Strain
[7] = tested on: Aedes aegypti PRS Puerto Rican strain (synthetic pyrethroid resistant) L3 larvae; experiment: Mosquito larval dose response assay, PRS strain; conditions: read-out: Lethal Concentration (LC50) PRS Strain
[8] = Susceptible population, 24 hours exposure
[9] = Rhipicephalus microplus, 24 h, Example 2
[10] = Rhipicephalus microplus, 24 h, Example 3

SMILES: Cc1c(COC(=O)[C@@H]2[C@H](/C=C(\Cl)C(F)(F)F)C2(C)C)cccc1-c1ccccc1 (racemic) [Bifenthrin, bifenthrin]
- resistance ratio (LC50 of resistant population to that of susceptible population) [1]: about 3,500 times
- LC50 ([1]; Resistant population, read-out: LC50 (mg a.i./L)): 144 µg/mL (≈ 340 µM)
- LC90 (mg a.i./L) ([1]; Resistant population): 5.4 × 10^5 mg a.i./L
- LC99 (mg a.i./L) ([1]; Resistant population): 4.3 × 10^9 mg a.i./L
- LC50 [2, 8]: 0.04 µg/mL (≈ 0.0946 µM)
- LC90 (mg a.i./L) [2, 8]: 2.66 mg a.i./L
- LC99 (mg a.i./L) [2, 8]: 233.10 mg a.i./L

SMILES: CCOP(=S)(OCC)Oc1nc(Cl)c(Cl)cc1Cl [Chlorpyrifos, chlorpyrifos, reference compound]
- resistance ratio (LC50 of resistant population to that of susceptible population) [1]: 6.5 times
- LC50 ([1]; read-out: LC50 (mg a.i./L), Resistant population): 1.37 µg/mL (≈ 3.91 µM)
- LC90 (mg a.i./L) ([1]; Resistant population): 7.76 mg a.i./L
- LC99 (mg a.i./L) ([1]; Resistant population): 51.56 mg a.i./L
- F1 Progeny count No. dead/total ([3]; 5 ppm on wheat): 2/470 and 3/172 and 3/355
- 14 Day adult mortality No. dead (total) ([3]; 5 ppm on wheat): 0/50 (2×) and 1/50
- F1 Progeny count No. dead/total ([3]; 10 ppm on wheat): 1/350 and 0/317 and 2/232
- 14 Day adult mortality No. dead (total) ([3]; 10 ppm on wheat): 0/50
- LC50 ([2]; 24 h): 0.21 µg/mL (≈ 0.599 µM)
- LC90 (mg a.i./L) [2, 8]: 0.76 mg a.i./L
- LC99 (mg a.i./L) [2, 8]: 3.18 mg a.i./L

SMILES: CC1(C)C(C=C(Cl)Cl)C1C(=O)OC(C#N)c1cccc(Oc2ccccc2)c1 (centres unmarked) [Cypermethrin, cypermethrin, reference compound]
- LC50 (ppm) ([4]; Tiaro, Probit analysis): 3082 ppm
- LC99 (ppm) ([4]; Tiaro, Probit analysis): >10,000 ppm
- mortality at 2.5 ppm ([4]; Rhipicephalus microplus, 2.500 ppm): 59.7%
- mortality at 156.25 ppm ([4]; Rhipicephalus microplus, 156.25 ppm): 0.56%
- mortality at 312.5 ppm ([4]; Rhipicephalus microplus, 312.5 ppm): 20.4%
- mortality at 625 ppm ([4]; Rhipicephalus microplus, 625 ppm): 21.9%
- mortality at 1250 ppm ([4]; Rhipicephalus microplus, 1,250 ppm): 20.9%
- mortality at 5000 ppm ([4]; Rhipicephalus microplus, 5,000 ppm): 62.2%
- mortality at 10000 ppm ([4]; Rhipicephalus microplus, 10,000 ppm): 66.8%
- LC50 (ppm) ([5]; Example 2): 128 ppm
- LC99 (ppm) ([5]; Example 2): 540 ppm
- LC50 (ppm) ([5]; Example 3): 112 ppm
- LC99 (ppm) ([5]; Example 3): 317 ppm
- mortality at 2.5 ppm ([5]; Rhipicephalus microplus, 24 h, Example 2, 2.500 ppm): 100%
- mortality at 156.25 ppm [5, 9]: 67.3%
- mortality at 312.5 ppm [5, 9]: 89%
- mortality at 625 ppm [5, 9]: 99.6%
- mortality at 1250 ppm [5, 9]: 100%
- mortality at 5000 ppm ([5]; Rhipicephalus microplus, 24 h, Example 2, 5,000 ppm): 100%
- mortality at 10000 ppm ([5]; Rhipicephalus microplus, 24 h, Example 2, 10,000 ppm): 100%
- mortality at 39.0625 ppm ([5]; Rhipicephalus microplus, 24 h, Example 3, 39.0625 ppm): 0%
- mortality at 78.125 ppm ([5]; Rhipicephalus microplus, 24 h, Example 3, 78.125 ppm): 20.6%
- mortality at 156.25 ppm [5, 10]: 79.6%
- mortality at 312.5 ppm [5, 10]: 99.2%
- mortality at 625 ppm [5, 10]: 100%
- mortality at 1250 ppm [5, 10]: 100%

SMILES: CCOC(=O)CC(SP(=S)(OC)OC)C(=O)OCC (centres unmarked) [Malathion, malathion]
- LC50 ([6]; 24 h): 0.11 µg/mL (≈ 0.334 µM)
- LC50 ([6]; 48 h): 0.0389 µg/mL (≈ 0.118 µM)
- LC50 ([6]; 72 h): 0.0298 µg/mL (≈ 0.0901 µM)
- LC50 ([7]; 24 h): 0.291 µg/mL (≈ 0.88 µM)
- LC50 ([7]; 48 h): 0.177 µg/mL (≈ 0.535 µM)
- LC50 ([7]; 72 h): 0.127 µg/mL (≈ 0.384 µM)
